In patent US12497417B2, “Delivery systems for controlled drug release” (LADRX CORPORATION, priority 2015, dated 2025):

What was measured:
[1] = test system: human ovarian carcinoma xenograft model OVXF 899; assay: Gemcitabine and compound 15 in human ovarian carcinoma xenograft model OVXF 899; format: in vivo, NMRI nude mice; conditions: for Body weight change (BWC) versus control: compound 15 18 mg/kg gemcitabine equivalents i.v. days 1, 4, 8, 11, 15, 18, 22, 25
Protocol: Animals were kept in cages, the temperature inside the cages maintained at 25±1° C. with a relative humidity of 45-65% and an air change rate in the cage of 60-fold per hour. […] Feed and water were provided ad libitum. […] Animals were routinely monitored twice daily on working days and daily on Saturdays and Sundays. Starting on day 0, animals were weighed twice a week. Relative body weights (RBW) of individual animals are calculated by dividing the individual absolute body weight on day X (BWx) by the individual body weight on the day of randomization. The tumor volume is determined by a two-dimensional measurement with calipers on the day of randomization (Day 0) and then twice weekly. […] Schedules are applied to the extent that animal welfare policies allow. […] Frozen in liquid nitrogen, lyophilized (>48 h) and stoppered.

[2] = test system: human non-small cell carcinoma xenograft model LXFE 937; assay: Gemcitabine and compound 15 in human non-small cell carcinoma xenograft model LXFE 937; format: in vivo, NMRI nude mice; conditions: for Body weight change (BWC) versus control: compound 15 18 mg/kg gemcitabine equivalents i.v. days 0, 3, 7, 10, 14, 17, 21, 24
Protocol: Female NMRI nude mice received unilateral tumor implants subcutaneously in the left flank while under isoflurane anesthesia with human LXFE 937 tumor pieces until tumors were palpable and had reached a volume of ˜100 mm^3. Animals were kept in cages, the temperature inside the cages maintained at 25±1° C. with a relative humidity of 45-65% and an air change rate in the cage of 60-fold per hour. The animals were fed with autoclaved Teklad Global 19% Protein Extruded Diet (T.2019S.12) from Harlan Laboratories and had access to sterile filtered and acidified (pH 2.5) tap water which was changed twice weekly. Feed and water were provided ad libitum. […] Animals were routinely monitored twice daily on working days and daily on Saturdays and Sundays. Starting on day 0, animals were weighed twice a week. Relative body weights (RBW) of individual animals are calculated by dividing the individual absolute body weight on day X (BWx) by the individual body weight on the day of randomization. The tumor volume is determined by a two-dimensional measurement with calipers on the day of randomization (Day 0) and then twice weekly. Tumor volumes are calculated according to the following equation: • Tumor Vol [mm^3]=a [mm]×b^2 [mm^2]×0.5, where “a” is the largest diameter and “b” is the perpendicular diameter of the tumor representing an idealized ellipsoid. The relative volume of an individual tumor on day X (RTVx) is calculated by dividing the absolute volume [mm^3] of the respective tumor on day X (Tx) by the absolute volume of the same tumor on the day of randomization. Schedules are applied to the extent that animal welfare policies allow. Termination of individual mice at tumor volume >2000 mm^3. Stock solutions of compound 15 were prepared as follows for the two treatment groups: • 1) 8 mice, 40 g average weight: 2×18 mg/kg gemcitabine equivalents (bi-weekly dosing; d 0, 3, 7, 10 etc. for 4 weeks)≡58.4 mg/kg≡2.35 mg/mouse. Sample preparation: 115.5 mg weighed in a 10 mL vial dissolved in 7.35 mL 20 mM sodium phosphate buffer pH 7; 4 aliquots with 1.86 mL each in 10 mL vials. Frozen in liquid nitrogen, lyophilized (>48 h) and stoppered. On the day of treatment the lyophilized samples were dissolved in 20 mM sodium phosphate buffer pH 7, containing 5% Glucose and injected intravenously. Intravenous administration with vehicle (20 mM sodium phosphate buffer, 5% D-glucose—pH 7.0), gemcitabine (dissolved in 5% D-glucose; dose 240 mg/kg) and carried out on 1, 8, 15, and 22 and compound 15 (dissolved in 20 mM sodium phosphate buffer, 5% D-glucose—pH 7.0; 18 mg/kg gemcitabine equivalents) was carried on days 0, 3, 7, 10, 14, 17, 21, and 24.

[3] = test system: NSLC xenograft model LXFE 397; assay: Gemcitabine and compound 15 in human xenograft non small cell lung cancer model LXFE 397; format: in vivo, NMRI nude mice
Protocol: Female NMRI nude mice received unilateral tumor implants subcutaneously in the left flank while under isoflurane anesthesia with human LXFE 397 (squamous cell carcinoma, differentiation: poor) until tumors were palpable and had reached a volume of 50-150 mm^3. Animals were kept in cages, the temperature inside the cages maintained at 25±1° C. with a relative humidity of 45-65% and an air change rate in the cage of 60-fold per hour. The animals were fed with autoclaved Teklad Global 19% Protein Extruded Diet (T.2019S.12) from Harlan Laboratories and had access to sterile filtered and acidified (pH 2.5) tap water which was changed twice weekly. Feed and water are provided ad libitum. […] Animals are routinely monitored twice daily on working days and daily on Saturdays and Sundays. Starting on day 0, animals are weighed twice a week. Relative body weights (RBW) of individual animals are calculated by dividing the individual absolute body weight on day X (BWx) by the individual body weight on the day of randomization. The tumor volume is determined by a two-dimensional measurement with calipers on the day of randomization (Day 0) and then twice weekly. Tumor volumes are calculated according to the following equation: Tumor Vol [mm^3]=a [mm]×b^2 [mm^2]×0.5, where “a” is the largest diameter and “b” is the perpendicular diameter of the tumor representing an idealized ellipsoid. The relative volume of an individual tumor on day X (RTVx) is calculated by dividing the absolute volume [mm^3] of the respective tumor on day X (Tx) by the absolute volume of the same tumor on the day of randomization. Schedules are applied to the extent that animal welfare policies allow. Termination of individual mice at tumor volume >2000 mm^3. Stock solutions of compound 15 were prepared as follows for the two treatment groups: • 1) 8 mice, 40 g average weight: 24 mg/kg Gemcitabine equivalents≡78.48 mg/kg≡3.14 mg/mouse. Sample preparation: 154 mg weighed in a 20 mL vial dissolved in 14.7 mL 20 mM sodium phosphate buffer pH 7; 4 aliquots with 3.6 mL each in 10 mL vials. Frozen in liquid nitrogen, lyophilized (>48 h) and stoppered. • 2) 8 mice, 40 g average weight: 36 mg/kg Gemcitabine equivalents≡117.7 mg/kg≡4.71 mg/mouse. Sample preparation: 231 mg weighed in a 20 mL vial dissolved in 14.7 mL 20 mM sodium phosphate buffer pH 7; 4 aliquots with 3.6 mL each in 10 mL vials. Frozen in liquid nitrogen, lyophilized (>48 h) and stoppered.
On the day of treatment the lyophilized samples were dissolved in 20 mM sodium phosphate buffer pH 7, containing 5% Glucose and injected intravenously. […]

[4] = test system: human pancreatic carcinoma xenograft model Panc11159; assay: Gemcitabine and compound 15 in human pancreatic carcinoma xenograft model Panc11159; format: in vivo, NMRI nude mice; conditions: for tumor volumes (change): at day 85, gemcitabine 240 mg/kg, compound 15 18 mg/kg gemcitabine equivalents; for Body weight change (BWC) versus control: gemcitabine 240 mg/kg i.v. d 36, 43, 50, 57, compound 15 18 mg/kg gemcitabine equivalents i.v. d 36, 40, 43, 47, 50, 54, 57, 60
Protocol: Female NMRI nude mice (nu/nu) received unilateral Panc11159 tumor pieces subcutaneously implanted until tumors were palpable and had reached a volume of ˜200 mm^3. Animals were kept in cages (Macrolon Type-II wire-mesh), the temperature inside the cages maintained at 22±1° C. with a relative humidity of 50±10%. Light period: artificial; 12-hours dark/12 hours light rhythm (light 06.00 to 18.00 hours). The health of the mice was examined at the start of the experiment and twice per day during the experiment; identification: Ear mark and cage labels. The animals were fed with Ssniff NM, Soest, Germany and had access to autoclaved and acidified (pH 4.0) drinking. Feed and water were provided ad libitum.
Body weight change was performed two or three times per week. Tumor diameters (median and medium) were measured two or three times a week with a caliper. Tumor volumes were calculated according to V=(length×(width)2)/2. For calculation of the relative tumor volume (RTV) the tumor volumes at each measurement day were related to the day of first treatment. Stock solutions of compound 15 were prepared as follows for the two treatment groups: • 10 mice, 30-40 g average weight: 2×18 mg/kg gemcitabine equivalents (bi-weekly dosing for 4 weeks)≡58.4 mg/kg≡2.35 mg/mouse. Sample preparation: 115.5 mg weighed in a 10 mL vial dissolved in 7.35 mL 20 mM sodium phosphate buffer pH 7; 4 aliquots with 1.86 mL each in 10 mL vials. Frozen in liquid nitrogen, lyophilized (>48 h) and stoppered.
On the day of treatment the lyophilized samples were dissolved in 20 mM sodium phosphate buffer pH 7, containing 5% Glucose and injected intravenously. Intravenous administration with vehicle (20 mM sodium phosphate buffer, 5% D-glucose—pH 7.0) gemcitabine (dissolved in 5% D-glucose; dose 240 mg/kg) and carried out on d 36, 43, 50, 57 compound 15 (dissolved in 20 mM sodium phosphate buffer, 5% D-glucose—pH 7.0; 18 mg/kg gemcitabine equivalents) was carried on days d 36, 40, 43, 47, 50, 54, 57, and 60.

[5] = target: T1, cytidine deaminase (Homo sapiens, UniProt P32320); conditions: recommended dose of ˜1000 mg/m^2; cited from earlier work
T1 construct: host or cells: endogenous enzyme in the dosed subject (in vivo metabolism)

[6] = approximately one seventh of the dose of gemcitabine, p<0.05
[7] = gemcitabine 240 mg/kg i.v. days 1, 8, 15, 22

T1 sequence (P32320 whole entry): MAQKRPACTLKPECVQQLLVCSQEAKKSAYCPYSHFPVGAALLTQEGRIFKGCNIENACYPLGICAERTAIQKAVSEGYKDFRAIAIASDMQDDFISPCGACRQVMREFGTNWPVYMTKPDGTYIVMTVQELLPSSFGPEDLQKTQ

Compound: C/C(=N\NC(=O)c1ccc(NC(=O)CCCCCN2C(=O)C=CC2=O)cc1[N+](=O)[O-])c1ccc(C(=O)Nc2ccn([C@@H]3O[C@H](COP(=O)(O)O)C(O)C3(F)F)c(=O)n2)cc1 (stereo partly drawn) [Compound 15]
- tumor response ([1]; 50 days after the end of therapy, 18 mg/kg gemcitabine equivalents bi-weekly for 4 weeks): complete tumor remissions
- antitumor efficacy versus gemcitabine (tumor growth development) [1, 6]: superior antitumor efficacy
- Body weight change (BWC) versus control [1, 7]: approximately +10%
- antitumor efficacy versus gemcitabine (tumor growth development) [2, 6]: superior antitumor efficacy
- Body weight change (BWC) versus control [2, 7]: approximately +2%
- tumor response ([2]; ˜60 days after the end of therapy, 18 mg/kg gemcitabine equivalents bi-weekly for 4 weeks): complete tumor remissions
- antitumor efficacy versus gemcitabine (tumor growth development) ([3]; 24 mg/kg gemcitabine equivalents, one tenth of the dose of gemcitabine, p<0.05): superior antitumor efficacy
- Body weight change (BWC) versus control ([3]; day 27, 24 mg/kg gemcitabine equivalents i.v. days 1, 8, 15, 22): ~0.5%
- antitumor efficacy versus gemcitabine (tumor growth development) [4, 6]: superior antitumor efficacy
- tumor volumes (change) [4]: slight regression or stable disease
- Body weight change (BWC) versus control [4]: approximately +3%

Compound: Nc1ccn([C@@H]2O[C@H](CO)[C@@H](O)C2(F)F)c(=O)n1 [gemcitabine]
- average tumor volume ([1]; 50 days after therapy, gemcitabine 240 mg/kg): ~2000 mm^3
- start of tumor regrowth [1, 7]: ~10 days after therapy
- Body weight change (BWC) versus control [1, 7]: approximately +5%
- mice sacrificed due to tumor volume exceeding 2000 mm^3 ([1]; on day 74, 8 mice per group): 3 mice
- mice sacrificed due to tumor volume exceeding 2000 mm^3 ([2]; between day 78 to 85, 8 mice per group): 2 mice
- start of tumor regrowth [2, 7]: ~20 days after therapy
- Body weight change (BWC) versus control [2, 7]: approximately +10%
- average tumor volume ([2]; ˜50 days after therapy, gemcitabine 240 mg/kg): ~700 mm^3
- Body weight change (BWC) versus control ([3]; day 23, gemcitabine 240 mg/kg i.v. days 1, 8, 15, 22): approximately −6%
- mice sacrificed due to tumor volume exceeding 2000 mm^3 ([3]; on day 23, 8 mice per group, gemcitabine 240 mg/kg): 2 mice
- tumor volumes (change) [4]: doubled
- Body weight change (BWC) versus control [4]: approximately +3%
- fraction deactivated by cytidine deaminase to the inactive uridine metabolite and excreted in the urine [5]: approximately 90%
